Results from article PMC9299836 (eLife, 2022).
“And” between values parts separate entries of the source, which are not always exact repeats. Equal values may be shown once.

Assays:
mGluR2 [1] = target: mGluR2 (Mus musculus, UniProt Q14BI2, A548F); assay: Live-cell FRET, azi-CRD (cysteine-rich domain) sensor in HEK293T cells; conditions: for Mean normalized FRET response, azi-CRD PAM DRC: glutamate + 10μM BINA, maximal response normalized to 1mM glutamate
mGluR2 [2] = target: mGluR2 (Mus musculus, UniProt Q14BI2); assay: Live-cell FRET, SNAP-m2 (VFT domain) inter-subunit sensor in HEK293T cells; conditions: for SNAP-m2 FRET response (PAM DRC): individual cells, normalized to 1mM glutamate;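 for all read-outs here: apparent FRET efficiency from whole-membrane ROIs of single cells, corrected for donor bleed-through and background, ΔFRET as treatment minus pretreatment signal, recorded at room temperature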
Sequence of mGluR2 (Mus musculus, UniProt Q14BI2) (Q14BI2 19-872): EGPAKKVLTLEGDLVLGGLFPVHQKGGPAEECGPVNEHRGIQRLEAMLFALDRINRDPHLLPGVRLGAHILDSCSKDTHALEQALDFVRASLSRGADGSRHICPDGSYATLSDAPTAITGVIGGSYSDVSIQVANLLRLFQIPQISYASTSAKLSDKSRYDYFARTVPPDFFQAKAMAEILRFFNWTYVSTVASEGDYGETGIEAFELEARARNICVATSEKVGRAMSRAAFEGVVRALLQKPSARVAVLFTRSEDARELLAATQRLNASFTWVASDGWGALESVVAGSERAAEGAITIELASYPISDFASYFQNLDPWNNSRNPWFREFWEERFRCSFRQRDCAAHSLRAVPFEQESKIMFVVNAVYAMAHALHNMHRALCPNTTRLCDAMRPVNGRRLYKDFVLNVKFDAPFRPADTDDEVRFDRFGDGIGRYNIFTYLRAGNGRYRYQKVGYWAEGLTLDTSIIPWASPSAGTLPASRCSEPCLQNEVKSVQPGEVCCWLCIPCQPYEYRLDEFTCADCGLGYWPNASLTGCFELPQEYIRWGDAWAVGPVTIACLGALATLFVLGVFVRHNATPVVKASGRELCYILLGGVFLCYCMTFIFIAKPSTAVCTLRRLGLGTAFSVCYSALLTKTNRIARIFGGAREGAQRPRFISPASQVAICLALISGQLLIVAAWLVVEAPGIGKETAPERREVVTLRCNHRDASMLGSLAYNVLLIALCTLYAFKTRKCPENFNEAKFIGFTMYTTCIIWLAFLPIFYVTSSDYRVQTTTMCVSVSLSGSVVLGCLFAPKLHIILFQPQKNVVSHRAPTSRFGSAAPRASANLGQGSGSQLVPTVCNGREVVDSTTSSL

[3] = 10μM BINA, ([1 mM glutamate + modulator] - [1 mM glutamate]) × 100
[4] = Glutamate + 10μM BINA, log[Glutamate] (M) -5.82391
[5] = Glutamate + 10μM BINA, log[Glutamate] (M) -6.52288
[6] = Glutamate + 10μM BINA, log[Glutamate] (M) -7
[7] = Glutamate + 10μM BINA, log[Glutamate] (M) -7.30103
[8] = Glutamate + 10μM BINA, log[Glutamate] (M) -7.69897

Sequence of mGluR2 (Mus musculus, UniProt Q14BI2, A548F) (Q14BI2 19-872 A548F): as the sequence (Q14BI2 19-872) above, with A530F counted along it

Cc1c(OCc2cccc(-c3ccc(C(=O)O)cc3)c2)cc2c(c1C)C(=O)C(C1CCCC1)C2 (stereo not shown) [BINA]
azi-CRD - ΔEfficacy, Mean ΔEfficacy (mGluR2 [1]; [3]): 12.0943 | azi-CRD - ΔEfficacy, individual cell responses (mGluR2 [1]; 10μM BINA, single cells): 23.3716 and 17.6357 and 26.8405 and 19.7115 and 27.7937 and 0.5839 and -1.206 and 0.442 and -6.324 | Hill slope of glutamate titration (mGluR2 [1]; azi-CRD sensor, + 10 μM modulator): 1.16 | Live-cell FRET max response normalized to 1mM glutamate (mGluR2 [1]; azi-CRD sensor, Glutamate + 10μM BINA, individual values (N=9)): 1.278 and 1.006 and 0.9879 and 1.004 and 0.9368 and 1.234 and 1.176 and 1.2684 and 1.197 | Mean max response (normalized max ΔFRET) (mGluR2 [1]; azi-CRD, 1 mM glutamate + 10 μM modulator, normalized to 1 mM glutamate): 1.12 | Mean ΔPotency (mGluR2 [1]; azi-CRD, 10μM modulator, (([modulator + glutamate]EC50 – [glutamate] EC50)/[glutamate] EC50) × 100): -86.2846 | ΔPotency, individual cell (mGluR2 [1]; azi-CRD, 10μM modulator, calculated from individual cell responses): -93.2892 and -92.5628 and -93.8686 and -95.6587 and -92.9779 and -84.725 and -80.1033 and -74.2586 and -75.6122 and -79.7897 | Mean normalized FRET response, azi-CRD PAM DRC (mGluR2 [1]; log[Glutamate] (M) -3): 1.121 | Mean normalized FRET response, azi-CRD PAM DRC (mGluR2 [1]; log[Glutamate] (M) -4.1549): 1.112 | Mean normalized FRET response, azi-CRD PAM DRC (mGluR2 [1]; log[Glutamate] (M) -4.52288): 1.067 | Mean normalized FRET response, azi-CRD PAM DRC (mGluR2 [1]; log[Glutamate] (M) -5): 1.001 | Mean normalized FRET response, azi-CRD PAM DRC (mGluR2 [1]; log[Glutamate] (M) -5.39794): 0.8946 | Mean normalized FRET response, azi-CRD PAM DRC (mGluR2 [1]; log[Glutamate] (M) -5.82391): 0.6333 | Mean normalized FRET response, azi-CRD PAM DRC (mGluR2 [1]; log[Glutamate] (M) -6.52288): 0.1759 | Mean normalized FRET response, azi-CRD PAM DRC (mGluR2 [1]; log[Glutamate] (M) -7): 0.038 | Mean normalized FRET response, azi-CRD PAM DRC (mGluR2 [1]; log[Glutamate] (M) -7.30103): 0 | Mean normalized FRET response, azi-CRD PAM DRC (mGluR2 [1]; log[Glutamate] (M) -7.69897): 0 | Mean normalized FRET response, azi-CRD PAM DRC (mGluR2 [1]; log[Glutamate] (M) -8): 0 | SNAP-m2 - ΔEfficacy, Mean ΔEfficacy (mGluR2 [2]; [3]): 2.381 | SNAP-m2 - ΔEfficacy, individual cell responses (mGluR2 [2]; 10μM BINA, single cells): 2.679 and 0.7326 and 0.3738 and 4.211 and 3.017 and 2.268 and 3.39 | SNAP-m2 FRET response (PAM DRC), Mean (mGluR2 [2]; Glutamate + 10μM BINA, log[Glutamate] (M) -3): -1.024 | SNAP-m2 FRET response (PAM DRC), Mean (mGluR2 [2]; Glutamate + 10μM BINA, log[Glutamate] (M) -4.1549): -1.044 | SNAP-m2 FRET response (PAM DRC), Mean (mGluR2 [2]; Glutamate + 10μM BINA, log[Glutamate] (M) -4.52288): -1.065 | SNAP-m2 FRET response (PAM DRC), Mean (mGluR2 [2]; Glutamate + 10μM BINA, log[Glutamate] (M) -5): -1.035 | SNAP-m2 FRET response (PAM DRC), Mean (mGluR2 [2]; Glutamate + 10μM BINA, log[Glutamate] (M) -5.39794): -0.9191 | SNAP-m2 FRET response (PAM DRC) (mGluR2 [2]; [4]): -0.3851 and -0.8695 and -0.7127 and -0.7584 and -0.7474 and -0.9245 and -0.822 and -0.6977 and -0.989 and -0.9518 and -0.9499 and -0.2243 and -0.901 and -0.9622 and -1.01 and -0.9642 and -0.1942 and -0.3249 and -0.4164 and -0.506 | SNAP-m2 FRET response (PAM DRC), Mean (mGluR2 [2]; [4]): -0.7275 | SNAP-m2 FRET response (PAM DRC) (mGluR2 [2]; [5]): -0.06795 and -0.4149 and -0.3185 and -0.3338 and -0.3365 and -0.4306 and -0.3984 and -0.3309 and -0.4302 and -0.4616 and -0.4969 and -0.03041 and -0.4566 and -0.4789 and -0.4597 and -0.5155 and -0.05296 and -0.06597 and -0.09807 and -0.1208 and -0.3936 and -0.2233 and -0.4059 | SNAP-m2 FRET response (PAM DRC), Mean (mGluR2 [2]; [5]): -0.3184 | SNAP-m2 FRET response (PAM DRC) (mGluR2 [2]; [6]): -0.0453 and -0.1707 and -0.1814 and -0.1137 and 0 (10×) and -0.1874 and -0.2505 and -0.1579 and -0.1949 and -0.1703 | SNAP-m2 FRET response (PAM DRC), Mean (mGluR2 [2]; [6]): -0.07748 | SNAP-m2 FRET response (PAM DRC) (mGluR2 [2]; [7]): 0 (16×) and -0.1321 and -0.1145 and -0.02457 | SNAP-m2 FRET response (PAM DRC), Mean (mGluR2 [2]; [7]): -0.01427 | SNAP-m2 FRET response (PAM DRC) (mGluR2 [2]; [8]): 0 | SNAP-m2 FRET response (PAM DRC), Mean (mGluR2 [2]; [8]): 0 | Mean max response (normalized max ΔFRET) (mGluR2 [2]; SNAP-m2, 1 mM glutamate + 10 μM modulator, normalized to 1 mM glutamate): 1.02 | Mean ΔPotency (mGluR2 [2]; SNAP-m2, 10μM modulator, (([modulator + glutamate]EC50 – [glutamate] EC50)/[glutamate] EC50) × 100): -89.602 | Mean ΔEfficacy (mGluR2 [2]; SNAP-m2, 10μM modulator, ([1 mM glutamate + modulator] - [1 mM glutamate]) × 100): 2.381 | Hill slope of glutamate titration (mGluR2 [2]; SNAP-m2 sensor, + 10 μM modulator): –1.24 | Live-cell FRET max response normalized to 1mM glutamate (mGluR2 [2]; SNAP-m2 sensor, Glutamate + 10μM BINA, individual values (N=7)): 1.03 and 1.023 and 1.0339 and 1.027 and 1.007 and 1.004 and 1.042
